pIC50: −log10 of the molar value. Bridge positions count the residues as written; N and C are the ends. Square brackets hold non-standard residues; d marks the D form. Peptide text beside a SMILES is read from it. * marks the point of attachment. ξ: configuration not given here. Phe(3-CF3) = N[C@@H](Cc1cccc(C(F)(F)F)c1)C(=O)O; Phe(4-COOH) = N[C@@H](Cc1ccc(C(=O)O)cc1)C(=O)O; Bip = N[C@@H](Cc1ccc(-c2ccccc2)cc1)C(=O)O; NH(CH2)14COOH = O=C(O)CCCCCCCCCCCCCCN*; Phe(3-Me) = Cc1cccc(C[C@H](N)C(=O)O)c1; Bta = N[C@@H](Cc1csc2ccccc12)C(=O)O; Val(3-OH) = CC(C)(O)[C@H](N)C(=O)O; 4Pal = N[C@@H](Cc1ccncc1)C(=O)O; Cha = N[C@@H](CC1CCCCC1)C(=O)O; Cit = NC(=O)NCCC[C@H](N)C(=O)O; Thr(3ξ) = CC(O)[C@H](N)C(=O)O; PEG4 = NCCOCCOCCOCCOCCC(=O)O; Dap(Me) = CNC[C@H](N)C(=O)O; 12Ado = NCCCCCCCCCCCC(=O)O; Carboxymethyl = O=C(O)C*; Orn = NCCC[C@H](N)C(=O)O; Aun = NCCCCCCCCCCC(=O)O; Dab = NCC[C@H](N)C(=O)O; Nva = CCC[C@H](N)C(=O)O; Dap = NC[C@H](N)C(=O)O; AEEA = NCCOCCOCC(=O)O; Piv = CC(C)(C)C(=O)*
target: T1, PD-1/PD-L1 interaction (PE-labeled human PD-L1-Ig binding to Jurkat cell line over-expressing human PD-1) (Homo sapiens, UniProt Q15116); assay: Jurkat-PD-1 Cell Binding High-Content Screening Assay (CBA); type: cell-based; conditions: Jurkat cell line over-expressing human PD-1; PE-labeled PD-L1-Ig 20 nM final; read-out: Jurkat hPD1-PDL1 IC50
T1 construct: expressed in transfected cells; host or cells: Jurkat
Method in brief: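 First, compound is added to PD-1-expressing Jurkat cells in serum-containing DMEM and left 2 h at 37° C. Next, PE-conjugated PD-L1-Ig is introduced at 20 nM final concentration for 1 hour. Finally, cells are fixed in 4% paraformaldehyde with Hoechst 33342, washed and imaged.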

T1 sequence (Q15116 25-288): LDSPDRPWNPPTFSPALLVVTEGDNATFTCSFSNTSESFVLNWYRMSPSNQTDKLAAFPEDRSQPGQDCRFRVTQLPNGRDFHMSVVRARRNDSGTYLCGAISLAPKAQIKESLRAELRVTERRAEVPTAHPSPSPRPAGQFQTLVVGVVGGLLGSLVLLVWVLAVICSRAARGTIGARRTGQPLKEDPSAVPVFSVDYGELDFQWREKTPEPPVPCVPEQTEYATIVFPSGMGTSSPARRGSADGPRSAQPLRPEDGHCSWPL

pIC50	Structure (SMILES)
6.79	CNC[C@@H]1NC(=O)CSC[C@@H](C(=O)N[C@@H](CCN)C(=O)NCCCCCCCCCCC(=O)O)NC(=O)[C@H](CO)NC(=O)[C@H](C(C)O)NC(=O)[C@H](CC2CCCCC2)NC(=O)[C@H](CCN)NC(=O)[C@@H](CC(C)C)NC(=O)[C@H](CCCN)NC(=O)[C@H](Cc2ccc(O)cc2)NC(=O)[C@H](Cc2ccc(-c3ccccc3)cc2)NC(=O)[C@H](CCCCNC(=O)C(C)(C)C)NC(=O)[C@H](Cc2cccc(C)c2)NC(=O)[C@H](CC(=O)O)NC(=O)[C@H](Cc2ccc(OCC(=O)O)cc2)NC1=O (stereo partly drawn) [Compound 3596] ({CH2CO}-[Dap(Me)]Y(Carboxymethyl)D[Phe(3-Me)]K(Piv)[Bip]Y[Orn][dL][Dab][Cha][Thr(3ξ)]SC[Dab][Aun]-OH; thioether N-14)
7.79	Cc1cccc(C[C@@H]2NC(=O)[C@H](CC(=O)O)NC(=O)[C@H](Cc3ccc(OCC(=O)O)cc3)NC(=O)[C@H](CN)NC(=O)CSC[C@@H](C(=O)N[C@@H](CCN)C(=O)NCCCCCCCCCCC(=O)O)NC(=O)[C@H]([C@@H](C)O)NC(=O)[C@H](C(C)C)NC(=O)[C@H](CC3CCCCC3)NC(=O)[C@H](CCN)NC(=O)[C@@H](CC(C)C)NC(=O)[C@H](CCCN)NC(=O)[C@H](CCCNC(N)=O)NC(=O)[C@H](Cc3ccc(-c4ccccc4)cc3)NC(=O)[C@H](C(C)C)NC2=O)c1 [Compound 1064] ({CH2CO}-[Dap]Y(Carboxymethyl)D[Phe(3-Me)]V[Bip][Cit][Orn][dL][Dab][Cha]VTC[Dab][Aun]-OH; thioether N-14)
7.43	CC(C)C[C@H]1NC(=O)[C@H](CCCN)NC(=O)[C@H](Cc2ccc(O)cc2)NC(=O)[C@H](Cc2ccc(-c3ccccc3)cc2)NC(=O)[C@H](C(C)C)NC(=O)[C@H](Cc2csc3ccccc23)NC(=O)[C@H](CC(=O)O)NC(=O)[C@H](Cc2ccc(OCC(=O)O)cc2)NC(=O)[C@H](CN)NC(=O)CSC[C@@H](C(=O)N[C@@H](CCN)C(=O)NCCOCCOCC(=O)NCCCCCCCCCCC(=O)O)NC(=O)[C@H](CCCN)NC(=O)[C@H](C(C)C)NC(=O)[C@H](CC2CCCCC2)NC(=O)[C@H](CCN)NC1=O [Compound 1304] ({CH2CO}-[Dap]Y(Carboxymethyl)D[Bta]V[Bip]Y[Orn][dL][Dab][Cha]V[Orn]C[Dab][AEEA][Aun]-OH; thioether N-14)
8.00	CC(C)C[C@H]1NC(=O)[C@H](CCCN)NC(=O)[C@H](C(C)C)NC(=O)[C@H](Cc2ccc(-c3ccccc3)cc2)NC(=O)[C@H](C(C)C)NC(=O)[C@H](Cc2c[nH]c3ccccc23)NC(=O)[C@H](CC(=O)O)NC(=O)[C@H](Cc2ccncc2)NC(=O)[C@H](Cc2ccc(OCC(=O)O)cc2)NC(=O)CSC[C@@H](C(=O)NCC(=O)NCCOCCOCC(=O)N[C@@H](CCCN)C(=O)NCCCCCCCCCCC(=O)O)NC(=O)[C@H](CN)NC(=O)[C@H](C(C)C)NC(=O)[C@H](CC2CCCCC2)NC(=O)[C@H](CCN)NC1=O [Compound 3232] ({CH2CO}-Y(Carboxymethyl)[4Pal]DWV[Bip]V[Orn][dL][Dab][Cha]V[Dap]CG[AEEA][Orn][Aun]-OH; thioether N-14)
7.99	Cc1cccc(C[C@@H]2NC(=O)[C@H](CC(=O)O)NC(=O)[C@H](Cc3ccc(OCC(=O)O)cc3)NC(=O)[C@H](CN)NC(=O)CSC[C@@H](C(=O)N[C@@H](CCN)C(=O)NCCOCCOCC(=O)NCCCCCCCCCCC(=O)O)NC(=O)[C@H](CO)NC(=O)[C@H](C(C)(C)O)NC(=O)[C@H](CC3CCCCC3)NC(=O)[C@H](CCN)NC(=O)[C@@H](CC(C)C)NC(=O)[C@H](CCCN)NC(=O)[C@H](Cc3ccc(OCC(=O)O)cc3)NC(=O)[C@H](Cc3ccc(-c4ccccc4)cc3)NC(=O)[C@H](Cc3ccc(OCC(=O)O)cc3)NC2=O)c1 [Compound 2023] ({CH2CO}-[Dap]Y(Carboxymethyl)D[Phe(3-Me)]Y(Carboxymethyl)[Bip]Y(Carboxymethyl)[Orn][dL][Dab][Cha][Val(3-OH)]SC[Dab][AEEA][Aun]-OH; thioether N-14)
7.66	CCC(C)[C@@H]1NC(=O)[C@H](Cc2ccc(-c3ccccc3)cc2)NC(=O)[C@H](C(C)C)NC(=O)[C@H](Cc2cccc(C)c2)NC(=O)[C@H](CC(=O)O)NC(=O)[C@H](Cc2ccc(OCC(=O)O)cc2)NC(=O)[C@H](C(C)O)NC(=O)CSC[C@@H](C(=O)N[C@H](CCN)C(=O)NCCCCCCCCCCCC(=O)O)NC(=O)[C@H](C(C)O)NC(=O)[C@H](C(C)C)NC(=O)[C@H](CC2CCCCC2)NC(=O)[C@H](CCN)NC(=O)[C@@H](CC(C)C)NC(=O)[C@H](CCCN)NC1=O (stereo partly shown) [Compound 3092]
7.01	CCC[C@@H]1NC(=O)CSC[C@@H](C(=O)N[C@@H](CCN)C(=O)NCCOCCOCCOCCOCCC(=O)NCCCCCCCCCCCCCCC(=O)O)NC(=O)[C@H](CO)NC(=O)[C@H](C(C)(C)O)NC(=O)[C@H](CC2CCCCC2)NC(=O)[C@H](CCN)NC(=O)[C@@H](CC(C)C)NC(=O)[C@H](CCCN)NC(=O)[C@H](Cc2ccc(C(=O)O)cc2)NC(=O)[C@H](Cc2ccc(-c3ccccc3)cc2)NC(=O)[C@H](Cc2ccc(C(=O)O)cc2)NC(=O)[C@H](Cc2cccc(C(F)(F)F)c2)NC(=O)[C@H](CC(=O)O)NC(=O)[C@H](Cc2ccc(OCC(=O)O)cc2)NC1=O [Compound 2906] ({CH2CO}-[Nva]Y(Carboxymethyl)D[Phe(3-CF3)][Phe(4-COOH)][Bip][Phe(4-COOH)][Orn][dL][Dab][Cha][Val(3-OH)]SC[Dab][PEG4]-{NH(CH2)14COOH}; thioether N-14)
7.02	CC(=O)NCCCC[C@@H]1NC(=O)[C@H](Cc2ccc(-c3ccccc3)cc2)NC(=O)[C@H](CCNC(C)=O)NC(=O)[C@H](Cc2cccc(C)c2)NC(=O)[C@H](CC(=O)O)NC(=O)[C@H](Cc2ccc(OCC(=O)O)cc2)NC(=O)[C@H](Cc2ccc(OCC(=O)O)cc2)NC(=O)CSC[C@@H](C(=O)N[C@@H](CCN)C(=O)N[C@@H](CO)C(=O)NCCCCCCCCCCCC(=O)O)NC(=O)[C@H](Cc2cnc[nH]2)NC(=O)[C@H](C(C)O)NC(=O)[C@H](CC2CCCCC2)NC(=O)[C@H](CCN)NC(=O)[C@@H](CC(C)C)NC(=O)[C@H](CCCN)NC1=O (stereo partly drawn) [Compound 3646] ({CH2CO}-Y(Carboxymethyl)Y(Carboxymethyl)D[Phe(3-Me)][Dab](Ac)[Bip]K(Ac)[Orn][dL][Dab][Cha][Thr(3ξ)]HC[Dab]S[12Ado]-OH; thioether N-14)
7.94	CC(C)C[C@H]1NC(=O)[C@H](CCCN)NC(=O)[C@H](CCC(=O)O)NC(=O)[C@H](Cc2ccc(-c3ccccc3)cc2)NC(=O)[C@H](C(C)C)NC(=O)[C@H](Cc2c[nH]c3ccccc23)NC(=O)[C@H](CC(=O)O)NC(=O)[C@H](Cc2ccc(OCC(=O)O)cc2)NC(=O)[C@H](CN)NC(=O)CSC[C@@H](C(=O)N[C@@H](CCN)C(=O)NCCOCCOCC(=O)NCCCCCCCCCCC(=O)O)NC(=O)[C@H](CCCCN)NC(=O)[C@H](C(C)C)NC(=O)[C@H](CC2CCCCC2)NC(=O)[C@H](CCN)NC1=O [Compound 2660] ({CH2CO}-[Dap]Y(Carboxymethyl)DWV[Bip]E[Orn][dL][Dab][Cha]VKC[Dab][AEEA][Aun]-OH; thioether N-14)
8.43	CC(C)C[C@H]1NC(=O)[C@H](CCCN)NC(=O)[C@H](C(C)C)NC(=O)[C@H](Cc2ccc(-c3ccccc3)cc2)NC(=O)[C@H](C(C)C)NC(=O)[C@H](Cc2c[nH]c3ccccc23)NC(=O)[C@H](CC(=O)O)NC(=O)[C@H](Cc2ccc(OCC(=O)O)cc2)NC(=O)[C@H](CCCNC(=N)N)NC(=O)CSC[C@@H](C(=O)NCCOCCOCC(=O)NCCCCCCCCCCC(=O)O)NC(=O)[C@H](CCCN)NC(=O)[C@H](C(C)C)NC(=O)[C@H](CC2CCCCC2)NC(=O)[C@H](CCN)NC1=O [Compound 3347] ({CH2CO}-RY(Carboxymethyl)DWV[Bip]V[Orn][dL][Dab][Cha]V[Orn]C[AEEA][Aun]-OH; thioether N-14)
